# Residues, ends and D or L forms follow the SMILES beside them. *: point of attachment. Trt = c1ccc(C(c2ccccc2)(c2ccccc2)*)cc1; Boc = CC(C)(C)OC(=O)*; NHNH2 = NN*
row,SMILES,melting point [°C]
1,O=P(O)(C(F)(F)C(F)(F)C(F)(F)C(F)(F)C(F)(C(F)(F)F)C(F)(F)F)C(F)(F)C(F)(F)C(F)(F)C(F)(F)C(F)(C(F)(F)F)C(F)(F)F,91 to 94
2,COC(=O)CNC(=O)[C@H](NC(=O)[C@@H](CSC(c1ccccc1)(c1ccccc1)c1ccccc1)NC(=O)[C@@H](CCCCNC(=O)OC(C)(C)C)NC(=O)C[C@H](O)C=CCCSC(c1ccccc1)(c1ccccc1)c1ccccc1)C(C)C,85 to 87
3,O=C(O)c1ccccc1Oc1ccc(C(F)(F)F)cc1N(S(=O)(=O)c1cc(C(F)(F)F)cc(C(F)(F)F)c1)S(=O)(=O)c1cc(C(F)(F)F)cc(C(F)(F)F)c1,204 to 205
4,CC(=O)Nc1cc(C(=O)NC2OC(COC(C)=O)C(OC3OC(COC(C)=O)C(OC(C)=O)C(OC(C)=O)C3OC(C)=O)C(OC(C)=O)C2OC(C)=O)ccc1Cl (stereo unspecified),122 to 124
5,CCC(C)C1NC(=O)C(NC(=O)C(CC(C)C)N(C)C(C)=O)C(C)OC(=O)C(Cc2ccc(OC)cc2)N(C)C(=O)C2CCCN2C(=O)C(CC(C)C)NC(=O)C(C)C(=O)C(C(C)C)OC(=O)CC1OC(C)=O (stereo unspecified),130 to 133
6,CC(C)c1ccc(S(=O)(=O)OC(c2cc(C(OS(=O)(=O)c3ccc(C(C)C)cc3)(C(F)(F)F)C(F)(F)F)cc(C(OS(=O)(=O)c3ccc(C(C)C)cc3)(C(F)(F)F)C(F)(F)F)c2)(C(F)(F)F)C(F)(F)F)cc1,105
7,COCCOCCOc1cc2c3cc(OCCOCCOC)c(OCCOCCOC)cc3c3cc(OCCOCCOC)c(OCCOCCOC)cc3c2cc1OCCOCCOC,54
8,COC(=O)CCc1ccc(N(c2ccc(-c3ccc(N(c4ccc(CCC(=O)OC)cc4)c4cccc5c4Cc4ccccc4-5)cc3)cc2)c2cccc3c2Cc2ccccc2-3)cc1,127 to 129
9,CC(Br)C(=O)N=S(C)(=O)c1ccccc1 (stereo unspecified),109 to 110
10,CC(=O)c1cc2cc(Br)ccc2oc1=O,227
11,CCC(=O)OC1(C(=O)C(O)OC(=O)C(NC(=O)C2CCCN2C(=O)C(C)NC(=O)C(C)NC(=O)N(c2ccccc2)c2ccccc2)C(C)C)CCC2C3CC(C)C4=CC(=O)C=CC4(C)C3C(O)CC21C (stereo unspecified),150 to 152
12,Brc1cc(Br)c(Oc2nc(Oc3c(Br)cc(Br)cc3Br)nc(Oc3c(Br)cc(Br)cc3Br)n2)c(Br)c1,215 to 218
13,BrCCCCCCCCCCCBr,-11
14,COc1ccc(C(O)CNCc2ccccc2[N+](=O)[O-])cc1OC (stereo unspecified),120 to 121

# Continued, values first:
row,melting point [°C],SMILES
1,86 to 91,CCCCOC(=O)C(C)(C)Oc1ccc(-c2nc(-c3ccc(OC(C)(C)C(=O)OCCCC)cc3O)nc(-c3ccc(OC(C)(C)C(=O)OCCCC)cc3O)n2)c(O)c1
2,239 to 242,CC(C)CC(NC(=O)OC(C)(C)C)C(=O)NCC(=O)NCC(=O)NC(C)C(=O)NCC(=O)NC(CSC(c1ccccc1)(c1ccccc1)c1ccccc1)C(=O)NC(CCCCNC(=O)OC(C)(C)C)C(=O)NC(CC(N)=O)C(=O)NC(Cc1ccccc1)C(=O)NC(Cc1ccccc1)C(=O)NN (stereo unspecified) (Boc-LGGAGC(Trt)K(Boc)NFF-NHNH2; configuration not given here)
3,112 to 114,CCCCCCCCCCCCNC(=O)c1cccc(Sc2c(Nc3cc(C(=O)NCCCCCCCCCCCC)ccc3Cl)nn(-c3c(Cl)cc(Cl)cc3Cl)c2OS(=O)(=O)c2ccccc2)c1
4,100 to 102,O=C(CC(CC(=O)OCc1cc(Br)cc(Br)c1O)C(=O)OCc1cc(Br)cc(Br)c1O)OCc1cc(Br)cc(Br)c1O
5,136 to 137,CCCCCCCCCCCCc1c2c(c(CCCCCCCCCCCC)c3c1-c1ccc(Br)cc1C3=C(C#N)C#N)-c1ccc(Br)cc1C2=C(C#N)C#N
6,47.5 to 48.5,CCCCCCCCCCCCCC=CC(OC(=O)c1ccccc1)C(COC1OC(COCCC(C(=O)OC(C)(C)C)C(=O)OC(C)(C)C)C(O)C(O)C1O)NC(=O)CCCCCCCCCCCCCCC (stereo unspecified)
7,156 to 160,CC(C)(C)OC(=O)NCc1ccc(CNC(=O)N2CCN(C(=O)CN3CCC(=O)N(CC(=O)N4CCN(C(=O)NCc5ccc(CNC(=O)OC(C)(C)C)cc5)CC4)CCC3=O)CC2)cc1

# From a melting point compilation (Tetko et al.)
